# Tests used:
# [1] = molecular target: NAMPT (human, recombinant, C-terminally His-tagged) (Homo sapiens, UniProt P43490); assay: Time-Resolved Fluorescence Resonance Energy Transfer (TR-FRET) Binding Assay of NAMPT; conditions: without substrates; 6.8 nM NAMPT, 200 nM probe, 3 hours equilibration
# Method in brief: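 Compounds, diluted in half-log steps, are mixed with enzyme (6.8 nM), fluorescent probe (200 nM) and Tb-anti-His antibody (1 nM) in pH 7.5 HEPES buffer containing 10 mM MgCl2 and 1 mM DTT. Plates equilibrate 3 h at room temperature; normalized FRET ratios are fitted by four-parameter logistic regression for IC50.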
# NAMPT = NAMPT (Homo sapiens, UniProt P43490); assay: TR-FRET Binding Assay of NAMPT with PRPP; conditions: with 200 μM PRPP and 2.5 mM ATP; 2 nM NAMPT, 2 nM probe, 16 hours equilibration
# Sequence of NAMPT (P43490 whole entry): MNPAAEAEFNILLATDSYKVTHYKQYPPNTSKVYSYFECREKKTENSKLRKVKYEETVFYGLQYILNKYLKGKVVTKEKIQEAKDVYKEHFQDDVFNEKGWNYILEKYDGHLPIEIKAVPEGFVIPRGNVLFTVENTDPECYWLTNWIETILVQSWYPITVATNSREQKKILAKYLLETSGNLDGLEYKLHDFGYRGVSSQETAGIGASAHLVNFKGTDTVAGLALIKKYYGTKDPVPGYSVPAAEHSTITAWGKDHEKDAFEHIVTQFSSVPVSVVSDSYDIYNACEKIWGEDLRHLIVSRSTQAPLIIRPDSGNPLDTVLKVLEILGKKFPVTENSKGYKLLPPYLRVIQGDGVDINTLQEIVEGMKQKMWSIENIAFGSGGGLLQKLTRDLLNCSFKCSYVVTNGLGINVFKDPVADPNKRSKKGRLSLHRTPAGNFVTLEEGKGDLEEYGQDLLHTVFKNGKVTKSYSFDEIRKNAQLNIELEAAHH
# Method in brief: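 Compounds were mixed with 2 nM His-tagged NAMPT, 2 nM probe, 1 nM terbium anti-His antibody, 200 μM PRPP and 2.5 mM ATP in assay buffer with 2% DMSO, then left 16 hours to permit possible enzymatic processing of compounds before time-resolved FRET was measured.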
# PC3 cells = assay: NAMPT Cell Proliferation Assay; assay type: cell-based; conditions: Homo sapiens, PC-3, 120 h, 5 days incubation, cell viability by Cell Titer Glo
# Method in brief: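 Cell Titer Glo viability after 5-day exposure (37° C, 5% CO2); PC3, 500 cells/well, RPMI + 10% heat-inactivated FBS, overnight attachment before dosing. Dose range 10 μM to 1×10^−5 μM, 10-fold steps. IC50 = sigmoidal fit of % inhibition.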
# Sequence of NAMPT (human, recombinant, C-terminally His-tagged) (P43490 whole entry): as above
SMILES,IC50 [1] [nM],IC50 (NAMPT) [nM],IC50 (PC3 cells) [nM]
"O=C(NCc1ccn2ccnc2c1)c1ccc(C2CN(C(=O)c3cccnc3)C2)cc1 [Example 659, N-(imidazo[1,2-a]pyridin-7-ylmethyl)-4-[1-(pyridin-3-ylcarbonyl)azetidin-3-yl]benzamide]",646,0.71,223
"O=C(NCc1ccn2ccnc2c1)c1ccc(C2CN(C(=O)C3CCCCC3)C2)cc1 [Example 660, 4-[1-(cyclohexylcarbonyl)azetidin-3-yl]-N-(imidazo[1,2-a]pyridin-7-ylmethyl)benzamide]",282,0.693,70.9
"O=C(NCc1ccn2ccnc2c1)c1ccc(C2CN(C(=O)c3ccccn3)C2)cc1 [Example 661, N-(imidazo[1,2-a]pyridin-7-ylmethyl)-4-[1-(pyridin-2-ylcarbonyl)azetidin-3-yl]benzamide]",462,0.641,67.2
"O=C(NCc1ccn2ccnc2c1)c1ccc(C2CN(C(=O)c3ccoc3)C2)cc1 [Example 662, 4-[1-(furan-3-ylcarbonyl)azetidin-3-yl]-N-(imidazo[1,2-a]pyridin-7-ylmethyl)benzamide]",318,0.671,93.4
"O=C(NCc1ccn2ccnc2c1)c1ccc(C2CN(C(=O)c3ccncn3)C2)cc1 [Example 663, N-(imidazo[1,2-a]pyridin-7-ylmethyl)-4-[1-(pyrimidin-4-ylcarbonyl)azetidin-3-yl]benzamide]",653,1.07,90
"O=C(NCc1ccn2ccnc2c1)c1ccc(C2CN(C(=O)c3nccs3)C2)cc1 [Example 664, N-(imidazo[1,2-a]pyridin-7-ylmethyl)-4-[1-(1,3-thiazol-2-ylcarbonyl)azetidin-3-yl]benzamide]",214,0.733,71.5
"CC1(C(=O)N2CC(c3ccc(C(=O)NCc4ccn5ccnc5c4)cc3)C2)CCCCC1 [Example 665, N-(imidazo[1,2-a]pyridin-7-ylmethyl)-4-{1-[(1-methylcyclohexyl)carbonyl]azetidin-3-yl}benzamide]",123,0.357,7.28
"CC(C)C(C)C(=O)N1CC(c2ccc(C(=O)NCc3ccn4ccnc4c3)cc2)C1 (stereo not drawn) [Example 666, 4-[1-(2,3-dimethylbutanoyl)azetidin-3-yl]-N-(imidazo[1,2-a]pyridin-7-ylmethyl)benzamide]",193,0.855,5.18
"Cc1cccc(C(=O)N2CC(c3ccc(C(=O)NCc4ccn5ccnc5c4)cc3)C2)c1 [Example 667, N-(imidazo[1,2-a]pyridin-7-ylmethyl)-4-[1-(3-methylbenzoyl)azetidin-3-yl]benzamide]",226,0.798,45.8
"O=C(NCc1ccn2ccnc2c1)c1ccc(C2CN(C(=O)c3ccsc3)C2)cc1 [Example 668, N-(imidazo[1,2-a]pyridin-7-ylmethyl)-4-[1-(thiophen-3-ylcarbonyl)azetidin-3-yl]benzamide]",263,1.1,80.3
"O=C(NCc1ccn2ccnc2c1)c1ccc(C2CN(C(=O)c3cccc(OC(F)(F)F)c3)C2)cc1 [Example 669, N-(imidazo[1,2-a]pyridin-7-ylmethyl)-4-{1-[3-(trifluoromethoxy)benzoyl]azetidin-3-yl}benzamide]",407,0.807,686
"Cc1ccsc1C(=O)N1CC(c2ccc(C(=O)NCc3ccn4ccnc4c3)cc2)C1 [Example 670, N-(imidazo[1,2-a]pyridin-7-ylmethyl)-4-{1-[(3-methylthiophen-2-yl)carbonyl]azetidin-3-yl}benzamide]",62,0.545,9.92
"O=C(NCc1ccn2ccnc2c1)c1ccc(C2CN(C(=O)c3cccc(C(F)(F)F)c3)C2)cc1 [Example 671, N-(imidazo[1,2-a]pyridin-7-ylmethyl)-4-{1-[3-(trifluoromethyl)benzoyl]azetidin-3-yl}benzamide]",611,1.06,684
"CC(C)S(=O)(=O)N1CCC(c2ccc(C(=O)NCc3ccn4ccnc4c3)cc2)C1 (stereo not drawn) [Example 672, N-(imidazo[1,2-a]pyridin-7-ylmethyl)-4-[1-(propan-2-ylsulfonyl)pyrrolidin-3-yl]benzamide]",313,0.504,80
"COCCn1cc(-c2ccc(NC(=O)NCc3ccn4ccnc4c3)cc2)cn1 [Example 673, 1-(imidazo[1,2-a]pyridin-7-ylmethyl)-3-{4-[1-(2-methoxyethyl)-1H-pyrazol-4-yl]phenyl}urea]",452,0.697,122
"O=C(NCc1ccn2ccnc2c1)Nc1ccc(-c2cnn(CC3CCCO3)c2)cc1 (stereo not drawn) [Example 674, 1-(imidazo[1,2-a]pyridin-7-ylmethyl)-3-{4-[1-(tetrahydrofuran-2-ylmethyl)-1H-pyrazol-4-yl]phenyl}urea]",297,0.535,32.4
"O=C(NCc1ccn2ccnc2c1)Nc1ccc(-c2cnn(CC3CCOCC3)c2)cc1 [Example 675, 1-(imidazo[1,2-a]pyridin-7-ylmethyl)-3-{4-[1-(tetrahydro-2H-pyran-4-ylmethyl)-1H-pyrazol-4-yl]phenyl}urea]",376,2.07,69.8
"O=C(NCc1ccc2ncnn2c1)c1ccc(-c2cnn(CC3COCCO3)c2)s1 (stereo not drawn) [Example 676, 5-[1-(1,4-dioxan-2-ylmethyl)-1H-pyrazol-4-yl]-N-([1,2,4]triazolo[1,5-a]pyridin-6-ylmethyl)thiophene-2-carboxamide]",126,6.98,78.7
"O=C(NCc1ccn2ccnc2c1)c1ccc(C2CCN(C(=O)c3ccccc3F)CC2)s1 [Example 677, 5-[1-(2-fluorobenzoyl)piperidin-4-yl]-N-(imidazo[1,2-a]pyridin-7-ylmethyl)thiophene-2-carboxamide]",1.77,0.796,0.613
"CC(C)(C)OC(=O)N1CCC(c2ccc(C(=O)NCc3cn4ccnc4cn3)cc2)CC1 [Example 678, tert-butyl 4-{4-[(imidazo[1,2-a]pyrazin-6-ylmethyl)carbamoyl]phenyl}piperidine-1-carboxylate]",41.2,0.23,15.1
"O=C(CC1CCCC1)Nc1ccc(C(=O)NCc2cn3ccnc3cn2)cc1 [Example 679, 4-[(cyclopentylacetyl)amino]-N-(imidazo[1,2-a]pyrazin-6-ylmethyl)benzamide]",22.8,1.74,10.9
"CC(C)(C)OC(=O)N1CCC(c2ccc(NC(=O)NCc3cn4ccnc4cn3)cc2)CC1 [Example 680, tert-butyl 4-(4-{[(imidazo[1,2-a]pyrazin-6-ylmethyl)carbamoyl]amino}phenyl)piperidine-1-carboxylate]",37.1,2.38,629
"O=C(CC1CCCC1)Nc1ccc(NC(=O)NCc2cn3ccnc3cn2)cc1 [Example 681, 2-cyclopentyl-N-(4-{[(imidazo[1,2-a]pyrazin-6-ylmethyl)carbamoyl]amino}phenyl)acetamide]",27.6,2,145

# From patent US9187472B2 (AbbVie Inc., priority 2012, dated 2015)
